This is an account of results in patent publication US5998180A, “Nitrilase from Rhodoccus rhodochrous for converting acrylonitrile directly to acrylic acid” (priority 1995, dated 1999).

Like-named read-outs stand apart in the source and are kept apart here.

Experiment [1] concerns Rhodococcus rhodochrous NCIMB 40757 nitrilase. Briefly: Nitrilase kinetics of whole cells (acrylonitrile to ammonium acrylate). The experiment is classed as biochemical. The following applies: for Km: 30° C. On the procedure: A novel nitrilase is characterised by having Km for acrylonitrile below 500 μM. Throughout this specification Km refers to Km measured at pH 7.0. […] In particular we use the conditions of Example 6 below. […] Microbial., 135 3153-3164 and those described for lactate dehydrogenase by Wagner (1990) Tibtech., 8, 263-270 will yield nitrilase having Km values up to 60 or 100, or perhaps 300 μM, and Km values down to. 9.4 and even 3.8 μM.
A novel nitrilase of the invention is characterised by having Ki for ammonium acrylate of at least 100 mM, preferably at least 150 or 200, more preferably at least 250 mM. Throughout this specification Ki refers to Ki measured at pH 7.0. […] Preferably measurement is under the conditions given in Example 7 below. […] It is envisaged that standard techniques and selection procedures, eg mutagenesis, will yield nitrilase having Ki for ammonium acrylate up to 300 mM or even 800 mM or greater.
The cells of the Rhodococcus rhodochrous strain grown as described in Example 1 were suspended in solutions of 50 mM pH 7 sodium phosphate buffer at 30° C. containing the concentrations of acrylonitrile shown in the table below. Samples were taken over time to determine the acrylonitrile, acrylamide and ammonium acrylate concentrations in the cell suspensions.
The cells of the Rhodococcus rhodochrous strain grown as described in Example 1 were suspended in solutions of 1.2 M ammonium acrylate at 30° C. containing the concentrations of acrylonitrile shown in the table below. Samples were taken over time to determine the acrylonitrile, acrylamide and ammonium acrylate concentrations in the cell suspensions.

Experiment [2] deals with T1, Rhodococcus rhodochrous K22 nitrilase (Rhodococcus rhodochrous, UniProt Q02068).
T1 sequence (Q02068 1-383): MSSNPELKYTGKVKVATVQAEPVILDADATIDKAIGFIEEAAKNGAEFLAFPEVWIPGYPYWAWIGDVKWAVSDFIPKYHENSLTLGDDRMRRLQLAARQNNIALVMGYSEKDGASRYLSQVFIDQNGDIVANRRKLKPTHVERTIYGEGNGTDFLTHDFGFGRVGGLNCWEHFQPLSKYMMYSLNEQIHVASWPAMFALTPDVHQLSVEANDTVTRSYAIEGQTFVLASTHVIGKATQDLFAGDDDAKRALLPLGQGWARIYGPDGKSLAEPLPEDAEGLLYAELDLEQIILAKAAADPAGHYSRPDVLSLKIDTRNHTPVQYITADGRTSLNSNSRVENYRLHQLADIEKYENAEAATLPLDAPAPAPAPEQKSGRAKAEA
The conditions noted are these: read-out: Km (acrylonitrile); reported in J. Bacteriol. 172, 9, 4807-4815; cited from earlier work.

Experiment [3] has as its system Fusarium oxysporum f.sp. melonis nitrilase. The following applies: read-out: Km (acrylonitrile), cited from earlier work.

In general, Km refers to the substrate concentration at which the rate is half of its maximum. In the case of `C=CC#N` [acrylonitrile], the Km in experiment [1] (whole cell form, 50 mM pH 7 sodium phosphate buffer, read-out: Km for acrylonitrile) was 30.6 µM; in experiment [1] (whole cells in 1.2 M ammonium acrylate, read-out: apparent Km (acrylonitrile) in 1.2 M ammonium acrylate) it was 145 µM; in experiment [2] it was 1140 µM; in experiment [3] (Goldlust and Bohak (1989)), 17000 µM; in experiment [3] (reported in Biotech. Appl. Biochem., 1989, 11, 581-601), 17000 µM.

Turning to `C=CC(=O)O` [ammonium acrylate], in experiment [1] (initial experiments), the “ratio (Ki for ammonium acrylate)/(Km for acrylonitrile)” value is “greater than 10000”.
